The results in this text go back to the Kinase Knowledgebase extract (Sharma et al. 2016).

Usually IC50 stands for the midpoint of a concentration-inhibition curve. Low readings indicate greater potency, high ones weaker potency.

SMILES strings stand for the structures.

Assay in all cases: Enzyme Assay
In experiment [1] the target is PIK3CD (Human) (UniProt O00329).
For experiment [2], the target named is PIK3CB (Human) (UniProt P42338).
The target in experiment [3] is PIK3CA (human) (UniProt P42336).
Chain of PIK3CA (human) (P42336 whole entry, looked up): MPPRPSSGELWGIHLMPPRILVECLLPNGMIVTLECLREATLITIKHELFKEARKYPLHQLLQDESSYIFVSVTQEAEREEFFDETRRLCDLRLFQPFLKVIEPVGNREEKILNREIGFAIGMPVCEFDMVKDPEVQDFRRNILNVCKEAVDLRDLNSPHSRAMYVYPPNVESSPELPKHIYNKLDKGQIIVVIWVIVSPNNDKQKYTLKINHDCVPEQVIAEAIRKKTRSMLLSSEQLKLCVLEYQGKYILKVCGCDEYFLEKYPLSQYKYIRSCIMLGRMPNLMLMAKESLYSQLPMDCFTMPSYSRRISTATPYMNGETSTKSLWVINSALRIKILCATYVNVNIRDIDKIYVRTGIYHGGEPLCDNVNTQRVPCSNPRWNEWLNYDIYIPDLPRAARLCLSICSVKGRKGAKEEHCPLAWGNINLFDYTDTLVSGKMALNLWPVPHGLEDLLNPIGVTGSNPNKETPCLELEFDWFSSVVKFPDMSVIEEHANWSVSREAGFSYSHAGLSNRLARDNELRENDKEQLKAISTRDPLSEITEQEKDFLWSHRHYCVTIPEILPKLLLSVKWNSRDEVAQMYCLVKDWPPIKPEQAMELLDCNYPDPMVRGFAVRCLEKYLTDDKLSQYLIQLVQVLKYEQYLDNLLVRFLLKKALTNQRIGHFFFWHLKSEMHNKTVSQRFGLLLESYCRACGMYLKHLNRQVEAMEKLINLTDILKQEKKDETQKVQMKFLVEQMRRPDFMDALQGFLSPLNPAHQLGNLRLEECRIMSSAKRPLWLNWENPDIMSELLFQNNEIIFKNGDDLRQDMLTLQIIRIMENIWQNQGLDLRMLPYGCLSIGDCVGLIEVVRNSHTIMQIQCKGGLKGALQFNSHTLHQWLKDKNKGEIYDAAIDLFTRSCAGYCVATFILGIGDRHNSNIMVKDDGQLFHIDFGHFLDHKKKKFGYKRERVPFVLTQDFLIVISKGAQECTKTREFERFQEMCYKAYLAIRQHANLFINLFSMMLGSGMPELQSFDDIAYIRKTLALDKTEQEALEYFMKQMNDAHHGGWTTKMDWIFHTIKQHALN
For experiment [4], the target named is PIK3CG (human) (UniProt P48736).
Chain of PIK3CG (human) (P48736 whole entry, looked up): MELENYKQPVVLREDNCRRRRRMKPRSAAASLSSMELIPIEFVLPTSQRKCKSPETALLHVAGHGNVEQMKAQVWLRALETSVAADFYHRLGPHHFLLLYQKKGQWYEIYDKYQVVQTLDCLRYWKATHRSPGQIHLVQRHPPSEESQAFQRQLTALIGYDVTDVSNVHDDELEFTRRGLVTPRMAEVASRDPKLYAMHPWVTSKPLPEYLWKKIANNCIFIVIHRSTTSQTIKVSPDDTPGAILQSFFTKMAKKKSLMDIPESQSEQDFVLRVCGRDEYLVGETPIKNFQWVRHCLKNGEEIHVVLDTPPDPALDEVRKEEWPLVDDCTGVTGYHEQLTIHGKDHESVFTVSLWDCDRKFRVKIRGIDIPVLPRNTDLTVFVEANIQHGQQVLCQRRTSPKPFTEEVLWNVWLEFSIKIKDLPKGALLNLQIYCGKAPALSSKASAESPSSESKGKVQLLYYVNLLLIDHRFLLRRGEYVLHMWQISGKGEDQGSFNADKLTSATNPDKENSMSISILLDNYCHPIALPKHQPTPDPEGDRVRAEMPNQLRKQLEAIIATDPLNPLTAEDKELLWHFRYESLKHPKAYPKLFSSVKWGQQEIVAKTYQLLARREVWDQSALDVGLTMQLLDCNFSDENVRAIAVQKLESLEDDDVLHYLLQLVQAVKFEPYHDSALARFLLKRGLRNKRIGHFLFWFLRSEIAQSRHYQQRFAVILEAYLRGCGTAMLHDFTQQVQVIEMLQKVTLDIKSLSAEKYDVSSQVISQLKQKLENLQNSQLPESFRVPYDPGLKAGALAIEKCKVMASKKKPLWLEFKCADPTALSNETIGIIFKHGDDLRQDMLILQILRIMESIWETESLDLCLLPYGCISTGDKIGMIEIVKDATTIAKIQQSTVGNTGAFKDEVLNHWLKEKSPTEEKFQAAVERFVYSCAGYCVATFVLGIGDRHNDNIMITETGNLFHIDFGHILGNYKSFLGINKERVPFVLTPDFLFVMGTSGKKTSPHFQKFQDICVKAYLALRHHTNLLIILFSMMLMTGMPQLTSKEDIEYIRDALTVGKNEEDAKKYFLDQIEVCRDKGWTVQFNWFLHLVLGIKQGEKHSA

Chain of PIK3CD (Human) (O00329 whole entry, looked up): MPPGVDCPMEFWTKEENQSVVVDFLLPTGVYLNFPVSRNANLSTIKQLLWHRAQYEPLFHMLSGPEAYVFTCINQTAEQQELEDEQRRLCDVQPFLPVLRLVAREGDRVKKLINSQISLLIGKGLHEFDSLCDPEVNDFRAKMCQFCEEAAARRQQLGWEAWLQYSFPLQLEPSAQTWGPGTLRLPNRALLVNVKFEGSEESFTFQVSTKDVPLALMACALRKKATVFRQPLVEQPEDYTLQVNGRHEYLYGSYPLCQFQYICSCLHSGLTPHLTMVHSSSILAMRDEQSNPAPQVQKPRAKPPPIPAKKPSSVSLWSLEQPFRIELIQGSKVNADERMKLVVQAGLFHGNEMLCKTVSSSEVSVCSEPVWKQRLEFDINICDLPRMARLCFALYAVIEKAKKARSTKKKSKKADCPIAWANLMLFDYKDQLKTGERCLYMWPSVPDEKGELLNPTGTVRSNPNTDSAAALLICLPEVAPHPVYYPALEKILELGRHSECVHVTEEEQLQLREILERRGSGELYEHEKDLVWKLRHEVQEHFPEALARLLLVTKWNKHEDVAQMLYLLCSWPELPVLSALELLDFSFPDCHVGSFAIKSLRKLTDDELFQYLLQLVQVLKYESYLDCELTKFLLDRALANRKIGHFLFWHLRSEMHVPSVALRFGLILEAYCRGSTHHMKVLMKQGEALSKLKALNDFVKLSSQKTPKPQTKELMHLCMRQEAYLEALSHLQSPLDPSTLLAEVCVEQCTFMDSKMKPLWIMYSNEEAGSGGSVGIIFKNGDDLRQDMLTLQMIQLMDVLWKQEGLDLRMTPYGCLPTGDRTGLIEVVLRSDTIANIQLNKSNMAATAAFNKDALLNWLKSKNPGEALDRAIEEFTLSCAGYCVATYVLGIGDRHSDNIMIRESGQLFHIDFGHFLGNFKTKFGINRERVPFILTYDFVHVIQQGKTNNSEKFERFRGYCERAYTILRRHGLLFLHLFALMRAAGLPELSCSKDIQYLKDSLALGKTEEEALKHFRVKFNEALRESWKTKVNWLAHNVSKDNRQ
Chain of PIK3CB (Human) (P42338 whole entry, looked up): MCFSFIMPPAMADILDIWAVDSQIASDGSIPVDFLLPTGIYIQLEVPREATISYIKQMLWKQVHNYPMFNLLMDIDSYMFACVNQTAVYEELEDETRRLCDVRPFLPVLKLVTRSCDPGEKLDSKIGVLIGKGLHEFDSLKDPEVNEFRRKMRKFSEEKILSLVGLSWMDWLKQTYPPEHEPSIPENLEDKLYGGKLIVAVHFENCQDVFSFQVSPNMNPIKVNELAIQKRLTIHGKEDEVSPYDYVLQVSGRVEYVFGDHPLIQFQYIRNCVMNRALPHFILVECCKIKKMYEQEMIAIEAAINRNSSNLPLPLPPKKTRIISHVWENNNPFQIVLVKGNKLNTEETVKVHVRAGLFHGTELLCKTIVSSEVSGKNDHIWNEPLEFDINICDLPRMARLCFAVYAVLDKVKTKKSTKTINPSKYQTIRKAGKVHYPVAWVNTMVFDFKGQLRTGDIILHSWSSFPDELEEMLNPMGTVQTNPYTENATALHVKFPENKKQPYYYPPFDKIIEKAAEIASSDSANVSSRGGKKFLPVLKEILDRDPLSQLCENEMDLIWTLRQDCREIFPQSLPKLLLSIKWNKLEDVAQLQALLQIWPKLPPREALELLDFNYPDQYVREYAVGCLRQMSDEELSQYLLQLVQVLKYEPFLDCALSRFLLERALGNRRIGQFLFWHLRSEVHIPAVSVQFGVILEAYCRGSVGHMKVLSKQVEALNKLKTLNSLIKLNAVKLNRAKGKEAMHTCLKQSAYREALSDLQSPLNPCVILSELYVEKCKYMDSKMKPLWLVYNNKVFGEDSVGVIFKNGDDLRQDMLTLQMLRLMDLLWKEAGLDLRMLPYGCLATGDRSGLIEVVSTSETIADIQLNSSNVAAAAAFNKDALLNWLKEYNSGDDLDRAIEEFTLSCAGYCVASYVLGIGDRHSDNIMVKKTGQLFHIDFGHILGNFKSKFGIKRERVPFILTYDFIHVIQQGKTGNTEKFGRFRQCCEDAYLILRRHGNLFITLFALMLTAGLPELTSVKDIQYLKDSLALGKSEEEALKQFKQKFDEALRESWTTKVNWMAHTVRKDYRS

For the molecule `Nc1cc(C(F)(F)F)c(-c2cc(N3CCC(=O)CC3)nc(N3CCOCC3)n2)cn1`, the IC50 came out at 692 nM in experiment [1], 1250 nM in experiment [2], 359 nM in experiment [3] and 4320 nM in experiment [4].

Regarding `C[C@H]1[C@@H](CC(C)(C)O)OC(=O)N1c1cc(-c2cnc(N)nc2C(F)(F)F)nc(N2CCOCC2)n1.C[C@H]1[C@H](CC(C)(C)O)OC(=O)N1c1cc(-c2cnc(N)nc2C(F)(F)F)nc(N2CCOCC2)n1`, the IC50 came out at 124 nM in experiment [2], 5 nM in experiment [3] and 290 nM in experiment [4].

Take `C[C@H](O)C[C@H]1OC(=O)N(c2cc(-c3cnc(N)nc3C(F)(F)F)nc(N3CCOCC3)n2)[C@H]1C`: the results for the IC50 in experiment [2], in experiment [3] and in experiment [4] were 11 nM, 5 nM and 205 nM, respectively.

For the molecule `Nc1cc(C(F)(F)F)c(-c2cc(N3CCOC(c4ccccc4)C3)nc(N3CCOCC3)n2)cn1` (stereo not given), the half-inhibitory concentration (IC50) in experiment [1] stood at 1040 nM; in experiment [2], 875 nM; in experiment [3], 134 nM.

Regarding `Nc1ncc(-c2cc(N3CCOCC3)nc(N3CCOCC3)n2)c(C(F)(F)F)n1`, the figures for the IC50 in experiment [1] and in experiment [4] were 80 nM and 464 nM, respectively.

Turning to `Nc1ncc(-c2cc(N3C(=O)O[C@H]4[C@H](O)CC[C@H]43)nc(N3CCOCC3)n2)c(C(F)(F)F)n1`, the half-inhibitory concentration (IC50) in experiment [2] turned out to be 48 nM; in experiment [3] it was 6 nM; in experiment [4], 145 nM.

For the molecule `Nc1cc(C(F)(F)F)c(-c2cc(N3CCN(c4ccccc4)C3=O)nc(N3CCOCC3)n2)cn1`, the IC50 in experiment [1] came out at 153 nM; in experiment [2], 192 nM; in experiment [3], 107 nM; in experiment [4], 8790 nM.

As to `C[C@@H](O)C[C@H]1OC(=O)N(c2cc(-c3cnc(N)nc3C(F)(F)F)nc(N3CCOCC3)n2)[C@H]1C`, the IC50 in experiment [3] stood at 5 nM.

Consider `Nc1cc(C(F)(F)F)c(-c2cc(N3CCCCC3=O)nc(N3CCOCC3)n2)cn1`, for which the IC50 in experiment [1] is 296 nM; in experiment [2] it was 214 nM; in experiment [3], 125 nM; in experiment [4], 5270 nM.

As for `Nc1cc(C(F)(F)F)c(-c2cc(N3CCS(=O)(=O)CC3)nc(N3CCOCC3)n2)cn1`, the IC50 in experiment [1] stood at 2320 nM; in experiment [2], 2750 nM; in experiment [3] it was 592 nM; in experiment [4] it was 4630 nM.

For `Nc1ncc(-c2cc(N3C(=O)OC[C@@H]3CO)nc(N3CCOCC3)n2)c(C(F)(F)F)n1`, the IC50 in experiment [1] was found to be 17 nM; in experiment [2] it was 6 nM; in experiment [3], 21 nM; in experiment [4], 529 nM.
